In patent publication US8771665B2 (Cocrystal Discovery, Inc., priority 2010, dated 2014) one finds IC50 data, which are given here for 10 compounds.

By IC50 is commonly meant the concentration that gives 50% inhibition.

The assay has as its target T1, HCV1b NS5B polymerase delta 21 (Hepatitis C virus genotype 1b, UniProt P26663).
T1 construct: purified HCV1b NS5B polymerase delta 21
As to the kind of experiment: RNA-Dependent RNA HCV NS5B (Polymerase) Assay and IC50 Determination. It is filed as biochemical. How it is done: RNA-Dependent RNA HCV NS5B (Polymerase) Assay and IC50 Determination
In vitro RNA-dependent RNA polymerase activity was determined in a reaction mixture (50 μL) containing 50 mM Tris-HCl, pH 7.5, 5 mM MgCl2, 1 mM dithiothreitol, 0.5% Triton® X-100, 10 μM of UTP, 0.1-0.5 μCi of α-^32P UTP (Perkin Elmer Life Sciences), 1 μg of polyA:U16 (Midland Oligo), and 0.6 μg of purified HCV1b NS5B polymerase delta 21. Different concentrations of compounds were added to the reaction mixtures. The reaction was carried out at RT (23° C.) for 60 min and then stopped by the addition of 100 μL of 50 mM EDTA. The reaction mixtures were filtered through either a DE81 membrane or a positively charged nylon membrane, and the membranes were then extensively washed with 30 mM sodium citrate, pH 7.0 and 300 mM NaCl. The radiolabeled RNA products were quantitated using a Storm™ Phosphorlmager™ (GE Life Sciences). IC50 values were calculated using GraFit 6 and GraphPad Prism 5 from triplicate assays.

T1 sequence (P26663 2420-2989): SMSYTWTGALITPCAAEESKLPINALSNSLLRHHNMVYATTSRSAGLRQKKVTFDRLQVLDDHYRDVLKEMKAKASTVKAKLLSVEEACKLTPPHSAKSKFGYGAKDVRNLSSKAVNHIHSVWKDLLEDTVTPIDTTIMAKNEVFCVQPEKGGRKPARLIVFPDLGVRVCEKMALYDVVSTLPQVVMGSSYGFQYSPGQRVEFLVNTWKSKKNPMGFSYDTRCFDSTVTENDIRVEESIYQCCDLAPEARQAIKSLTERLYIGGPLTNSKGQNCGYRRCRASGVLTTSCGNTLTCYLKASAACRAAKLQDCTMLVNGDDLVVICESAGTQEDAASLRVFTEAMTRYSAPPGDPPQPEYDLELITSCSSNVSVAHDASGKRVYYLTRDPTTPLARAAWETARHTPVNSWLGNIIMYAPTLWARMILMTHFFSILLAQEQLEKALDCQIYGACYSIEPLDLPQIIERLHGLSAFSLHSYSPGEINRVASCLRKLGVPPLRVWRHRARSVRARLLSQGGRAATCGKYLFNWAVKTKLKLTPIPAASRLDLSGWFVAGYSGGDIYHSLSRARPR

`CCN1CCC(c2cc(-c3ccc(NC(=O)c4cn[nH]c4)cc3)sc2C(=O)O)=C(C2CCC(C)CC2)C1` (stereo not shown) [Example 056, 3-[1-Ethyl-5-(4-methyl-cyclohexyl)-1,2,3,6-tetrahydro-pyridin-4-yl]-5-{4-[(1H-pyrazole-4-carbonyl)-amino]-phenyl}-thiophene-2-carboxylic acid] had an IC50 of 3 to 10 µM. The compound `Cc1cc(C)n2nc(CN3CCC(c4cc(C#CC(C)(C)C)sc4C(=O)O)=C(C4CCC(C)CC4)C3)nc2n1` (stereo not shown) [Example 128, 5-(3,3-Dimethyl-but-1-ynyl)-3-[1-(5,7-dimethyl-[1,2,4]triazolo[1,5-a]pyrimidin-2-ylmethyl)-5-(4-methyl-cyclohexyl)-1,2,3,6-tetrahydro-pyridin-4-yl]-thiophene-2-carboxylic acid] yielded a half-inhibitory concentration (IC50) of less than 3 µM. As to `CC1CCC(C2=C(c3cc(-c4ccc(NC(=O)c5cscn5)cc4)sc3C(=O)O)CCN(Cc3ccccn3)C2)CC1` (stereo not shown) [Example 131, 3-[5-(4-Methyl-cyclohexyl)-1-pyridin-2-ylmethyl-1,2,3,6-tetrahydro-pyridin-4-yl]-5-{4-[(thiazole-4-carbonyl)-amino]-phenyl}-thiophene-2-carboxylic acid], the IC50 is less than 3 µM. The result for `Cc1cc(C)n2nc(-c3ccc(-c4cc(C5=C(C6CCC(C)CC6)CN(C)CC5)c(C(=O)O)s4)cc3)cc2n1` (stereo not shown) [Example 161, 5-[4-(5,7-Dimethyl-pyrazolo[1,5-a]pyrimidin-2-yl)-phenyl]-3-[1-methyl-5-(4-methyl-cyclohexyl)-1,2,3,6-tetrahydro-pyridin-4-yl]-thiophene-2-carboxylic acid] reads 3 to 10 µM; that for `CCN1CCC(c2cc(-c3ccc(C(=O)Nc4ccccn4)cc3)sc2C(=O)O)=C(C2CCC(C)CC2)C1` (stereo not shown) [Example 062, 3-[1-Ethyl-5-(4-methyl-cyclohexyl)-1,2,3,6-tetrahydro-pyridin-4-yl]-5-[4-(pyridin-2-ylcarbamoyl)-phenyl]-thiophene-2-carboxylic acid], less than 3 µM. With `CC1CCC(C2=C(c3cc(-c4ccccc4)sc3C(=O)O)CCN(C(=O)c3nn(C)c4ccccc34)C2)CC1` (stereo not shown) [Example 099, 3-[5-(4-Methyl-cyclohexyl)-1-(1-methyl-1H-indazole-3-carbonyl)-1,2,3,6-tetrahydro-pyridin-4-yl]-5-phenyl-thiophene-2-carboxylic acid] the figure was 3 to 10 µM.

Turning to `CC1CCC(C2=C(c3cc(-c4ccc(NC(=O)c5cscn5)cc4)sc3C(=O)OCCN(C)C)CCN(C)C2)CC1` (stereo not shown) [Example 103, 3-[1-Methyl-5-(4-methyl-cyclohexyl)-1,2,3,6-tetrahydro-pyridin-4-yl]-5-{4-[(thiazole-4-carbonyl)-amino]-phenyl}-thiophene-2-carboxylic acid 2-dimethylamino-ethyl ester], the 50% inhibitory concentration (IC50) was less than 3 µM.

In turn, `CC1CCC(C2=C(c3cc(C#CC4CC4)sc3C(=O)O)CN(C)CC2)CC1` (stereo not shown) [Example 175, 5-Cyclopropylethynyl-3-[1-methyl-4-(4-methyl-cyclohexyl)-1,2,5,6-tetrahydro-pyridin-3-yl]-thiophene-2-carboxylic acid] returned an IC50 of less than 3 µM. With `CC1CCC(C2=C(c3cc(-c4ccc(/C=C/c5cscn5)cc4)sc3C(=O)O)CCN(C)C2)CC1` (stereo not shown) [Example 158, 3-[1-Methyl-5-(4-methyl-cyclohexyl)-1,2,3,6-tetrahydro-pyridin-4-yl]-5-[4-(2-thiazol-4-yl-vinyl)-phenyl]-thiophene-2-carboxylic acid] the figure was more than 10 µM; with `CCOC(=O)OC(C)OC(=O)c1sc(-c2ccc(NC(=O)c3cscn3)cc2)cc1C1=C(C2CCC(C)CC2)CN(C)CC1` (stereo not shown) [Example 104, 3-[1-Methyl-5-(4-methyl-cyclohexyl)-1,2,3,6-tetrahydro-pyridin-4-yl]-5-{4-[(thiazole-4-carbonyl)-amino]-phenyl}-thiophene-2-carboxylic acid 1-ethoxycarbonyloxy-ethyl ester], more than 10 µM.
